Test results: US8653104B2, “PTEN inhibitor or Maxi-K channels opener” (Otsuka Pharmaceuticals Co., Ltd., priority 2003, dated 2014)
Values belong to the molecule of their own block, whether it stands above or below them.

Columns and labels:
[1] = biological target: T1, Maxi-K channels (Homo sapiens, UniProt Q12791); assay: Whole-cell K+ current recording (patch clamp) in SK-N-SH cells; type: cell-based
T1 construct: endogenous in cells; host or cells: SK-N-SH (KCLB 30011) human neuroblastoma cells
T1 sequence (Q12791 whole entry): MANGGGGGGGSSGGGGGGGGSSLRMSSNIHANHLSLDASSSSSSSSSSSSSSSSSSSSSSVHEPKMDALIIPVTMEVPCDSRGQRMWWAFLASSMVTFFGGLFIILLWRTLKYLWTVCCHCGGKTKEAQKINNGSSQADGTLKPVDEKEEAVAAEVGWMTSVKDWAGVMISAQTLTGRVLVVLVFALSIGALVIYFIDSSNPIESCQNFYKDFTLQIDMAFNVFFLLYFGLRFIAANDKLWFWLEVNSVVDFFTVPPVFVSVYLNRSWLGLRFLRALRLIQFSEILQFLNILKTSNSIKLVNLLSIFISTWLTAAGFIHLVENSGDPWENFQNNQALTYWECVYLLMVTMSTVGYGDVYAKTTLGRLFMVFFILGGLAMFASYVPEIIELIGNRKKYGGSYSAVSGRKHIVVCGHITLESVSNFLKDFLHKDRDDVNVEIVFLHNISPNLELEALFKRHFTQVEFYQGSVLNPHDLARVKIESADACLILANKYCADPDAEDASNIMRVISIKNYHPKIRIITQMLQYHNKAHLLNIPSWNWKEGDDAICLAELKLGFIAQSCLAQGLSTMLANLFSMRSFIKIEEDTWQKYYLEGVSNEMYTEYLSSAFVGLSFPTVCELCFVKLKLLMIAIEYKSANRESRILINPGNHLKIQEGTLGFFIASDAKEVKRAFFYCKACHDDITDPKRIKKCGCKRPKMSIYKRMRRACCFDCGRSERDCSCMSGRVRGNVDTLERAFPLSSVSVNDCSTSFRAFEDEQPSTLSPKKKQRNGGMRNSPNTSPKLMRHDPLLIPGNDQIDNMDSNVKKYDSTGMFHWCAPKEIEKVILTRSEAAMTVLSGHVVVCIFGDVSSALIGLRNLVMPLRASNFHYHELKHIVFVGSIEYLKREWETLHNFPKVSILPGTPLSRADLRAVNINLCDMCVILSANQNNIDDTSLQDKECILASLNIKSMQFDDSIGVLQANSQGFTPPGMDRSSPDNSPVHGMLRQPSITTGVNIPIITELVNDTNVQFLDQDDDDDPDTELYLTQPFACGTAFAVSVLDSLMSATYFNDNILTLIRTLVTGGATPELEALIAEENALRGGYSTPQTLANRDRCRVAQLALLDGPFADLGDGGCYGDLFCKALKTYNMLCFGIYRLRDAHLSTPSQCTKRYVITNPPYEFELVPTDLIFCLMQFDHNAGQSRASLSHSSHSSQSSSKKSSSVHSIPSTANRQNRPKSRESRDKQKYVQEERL
Protocol: (§1) Cell cultures: SK-N-SH (KCLB 30011, human brain neuroblastoma) cells were cultured in Eagle's minimum essential medium (MEM) with 2 mM L-glutamine and 1.0 mM sodium pyruvate supplemented with 10% heat-inactivated fetal bovine serum. Cells were grown to confluence at 37° C. in 5% CO2 and used for experiments at no greater than passage 20.
Recording of the whole-cell K^+ current: The experiments were performed in a small bath (0.5 ml) mounted on the stage of an inverted microscope (Nikon model TE300, Tokyo, Japan) perfused continuously at a flow rate of 1 ml/min. Using the whole-cell configuration of the patch clamp technique, the K^+ currents were recorded at room temperature (20˜22° C.) with an Axopatch-200B patch clamp amplifier (Axon Instruments, Foster City, Calif.). Currents were sampled at 1 to 10 kHz after anti-alias filtering at 0.5 to 5 kHz. Data acquisition and command potentials were controlled by pClamp 6.0.3 software (Axon Instruments, Foster City, Calif.). To ensure the voltage clamp quality, electrode resistance was kept below 3 MΩ. Junction potentials were zeroed with the electrode in the standard bath solution. Gigaohm seal formation was achieved by suction and, after establishing the whole cell configuration, the capacitive transients elicited by symmetrical 10 mV voltage clamp steps from −80 mV were recorded at 50 kHz for calculation of cell capacitance. The normal bath solution for the whole-cell recordings was: NaCl 130 mM, KCl 5 mM, MgCl2 1.2 mM, CaCl2 1.8 mM, HEPES 10 mM, glucose 5.2 mM and the pH was adjusted to 7.4 with NaOH. Pipettes were filled with KCl 140 mM, MgCl2 0.5 mM, CaCl2 0.1 mM, ethylenebis(oxonitrilo) tetra-acetic acid (EGTA) 0.09 mM, HEPES 10 mM, glucose 10 mM and the pH was adjusted to 7.4 with KOH.
After establishment of whole-cell recordings and collecting control recordings for approximately 5 minutes until the current elicited by depolarization stabilized, cilostazol was applied to the bath. In the experiments, using glibenclamide or iberiotoxin, cilostazol was applied to the bath about 20 minutes after administering glibenclamide or iberiotoxin.

[2] = test system: PTEN; assay: Suppression of TNF-α-stimulated increase in PTEN phosphorylation level, Western blot in SK-N-SH cells; type: cell-based, human; conditions: cilostazol 1, 10 and 100 μM given 3 hours before TNF-α (50 ng/ml, one hour)
Protocol: as §1
Preparation of TNF-α solution: TNF-α (Upstate Biotechnology, Inc., Lake Placid, N.Y.) was dissolved in the phosphate buffered saline as a 10 μg/ml stock solution.
Western blot analysis: The confluent cells received MEM medium with 1% FBS plus cilostazol 3 hours prior to stimulation with TNF-α and then were exposed to TNF-α for one hour.
The cells were lysed in lysis buffer containing 50 mM Tris-Cl (pH 8.0), 150 mM NaCl, 0.02% sodium azide, 100 μg/ml phenylmethylsulfonyl fluoride, 1 μg/ml aprotinin and 1% Triton X-100. […] The signals of the bands were quantified using a GS-710 Calibrated imaging Densitomerter (Bio-Rad Laboratories, Hercules, Calif.). The results were expressed as a relative density. […]
Statistical analysis: The results are expressed as means±SEM. Statistical differences between groups were determined by Student's t-test. p<0.05 was considered to be significant.

block of the cilostazol-increased K+ current ([1]; glibenclamide 10 μM added to the bath): not
Maxi-K channel-mediated currents, blocker alone ([1]; glibenclamide alone): could not increase
Molecule: COc1ccc(Cl)cc1C(=O)NCCc1ccc(S(=O)(=O)NC(=O)NC2CCCCC2)cc1 [glibenclamide, 5-chloro-N-[2-[4-[[[(cyclohexyl-amino)carbonyl]amino]sulfonyl]phenyl]ethyl]-2-methoxy-benzamide]

Molecule: O=C1CCc2cc(OCCCCc3nnnn3C3CCCCC3)ccc2N1 [cilostazol, 6-[4-(1-cyclohexyl-1H-tetrazol-5-yl)butoxy]-3,4-dihydro-carbostyril]
Maxi-K channel-mediated currents in co-existence of glibenclamide ([1]; cilostazol applied about 20 minutes after glibenclamide): increase in maxi-K channel-medicated currents was given
whole-cell calcium activated K+ current ([1]; cilostazol applied to the bath alone): significantly increased
K+ current when added together with iberiotoxin ([1]; cilostazol together with iberiotoxin, compared with iberiotoxin alone): increase of the current was rather less than iberiotoxin alone
TNF-α-stimulated increased PTEN phosphorylation level [2]: concentration-dependently suppressed

Molecule: iberiotoxin
block of the cilostazol-increased K+ current ([1]; iberiotoxin 100 nM added to the bath): reversibly blocked
